According to patent US20160090556A1, “PRODUCTS COMPRISING MALODOR REDUCTION MATERIALS” (The Procter & Gamble Company, priority 2014, published 2016):
Read-outs that look alike come from different tables or passages of the source.

Experiment: Liquid dish neat product liquid-air partition coefficient
Type: physicochemical
Conditions: for Comment Code: Log of liquid dish neat product liquid-air partition coefficient: code letters K, L
[1] = class code letter within Comment Code

Row | SMILES | Log of liquid dish neat product liquid-air partition coefficient (Comment Code K/L) | Log of liquid dish neat product liquid-air partition coefficient (Comment Code K/L) [1] | Comment Code: Log of liquid dish neat product liquid-air partition coefficient
1 | OCCOc1ccccc1 [Material 834] | K (Log of liquid dish neat product liquid-air partition coefficient greater than or equal to −7) |  | 
2 | CC(O)C(C)/C=C1\C[C@H]2C[C@@H]1[C@@H]1C=CC[C@H]21 (stereo partly shown) [Material 359] |  | K (Log of liquid dish neat product liquid-air partition coefficient greater than or equal to −7) | K (Log of liquid dish neat product liquid-air partition coefficient greater than or equal to −7)
3 | CCCCCCCCCCCCCC#N [Material 38] |  | K (Log of liquid dish neat product liquid-air partition coefficient greater than or equal to −7) | 
4 | CC(C)(C)c1ccc(CCC=O)cc1 [Material 601] | K (Log of liquid dish neat product liquid-air partition coefficient greater than or equal to −7) |  | 
5 | CC(=O)CCc1ccc(O)cc1 [Material 1002] |  |  | K (Log of liquid dish neat product liquid-air partition coefficient greater than or equal to −7)
6 | CCOC1CCC(C(C)(C)CC)CC1 (stereo not shown) [Material 12] |  |  | K (Log of liquid dish neat product liquid-air partition coefficient greater than or equal to −7)
7 | C=CCCC(=O)C1=CCCC(C)(C)C1 [Material 697] | K (Log of liquid dish neat product liquid-air partition coefficient greater than or equal to −7) |  | 
8 | CCOC(C)OCCc1ccccc1 (stereo not shown) [Material 415] |  | K (Log of liquid dish neat product liquid-air partition coefficient greater than or equal to −7) | 
9 | C=C1CCCC(C)(C)C1C=C(C)C(C)=O (stereo not shown) [Material 913] | K (Log of liquid dish neat product liquid-air partition coefficient greater than or equal to −7) |  | 
10 | CC1CCC2C(C2(C)C)C12COC(C)(C)OC2 (stereo not shown) [Material 1036] | K (Log of liquid dish neat product liquid-air partition coefficient greater than or equal to −7) |  | 
11 | CC1=CC2C(C(C)C)CCC(C)(O)C2CC1 (stereo not shown) [Material 1047] | K (Log of liquid dish neat product liquid-air partition coefficient greater than or equal to −7) |  | 
12 | CC1=CCC(C)C(C)C12C=CC(C)O2 (stereo not shown) [Material 192] |  | K (Log of liquid dish neat product liquid-air partition coefficient greater than or equal to −7) | 
13 | CCCCOC(=O)C(C)OC(=O)CCC (stereo not shown) [Material 595] | K (Log of liquid dish neat product liquid-air partition coefficient greater than or equal to −7) |  | 
14 | O=C1CCCCCCCCCC/C=C/CCO1 [Material 289] |  | K (Log of liquid dish neat product liquid-air partition coefficient greater than or equal to −7) | 
15 | CCC(=O)OC1CC2C3C=CCC3C1C2(C)C (stereo not shown) [Material 343] |  | K (Log of liquid dish neat product liquid-air partition coefficient greater than or equal to −7) | K (Log of liquid dish neat product liquid-air partition coefficient greater than or equal to −7)
16 | C=CC(O)(CC)CCC=C(C)C (stereo not shown) [Material 390] |  | K (Log of liquid dish neat product liquid-air partition coefficient greater than or equal to −7) | 
17 | CC(C=O)Cc1ccc(C(C)(C)C)cc1 (stereo not shown) [Material 162] |  | K (Log of liquid dish neat product liquid-air partition coefficient greater than or equal to −7) | 
18 | C=C[C@](C)(O)CCC=C(C)C [Material 888] |  |  | K (Log of liquid dish neat product liquid-air partition coefficient greater than or equal to −7)
19 | CC(=O)OC(C)CC(C)(C)c1ccccc1 (stereo not shown) [Material 1134] |  |  | K (Log of liquid dish neat product liquid-air partition coefficient greater than or equal to −7)
20 | C=C1C2CCC(C2)C1(C)CCC=C(C)CO (stereo not shown) [Material 616] | K (Log of liquid dish neat product liquid-air partition coefficient greater than or equal to −7) |  | K (Log of liquid dish neat product liquid-air partition coefficient greater than or equal to −7)
21 | CC=Cc1ccc(OC)c(OC)c1 [Material 108] |  | K (Log of liquid dish neat product liquid-air partition coefficient greater than or equal to −7) | 
22 | CC1CCC2C(C)(C)C3CC12CCC3(C)OC=O (stereo not shown) [Material 566] | K (Log of liquid dish neat product liquid-air partition coefficient greater than or equal to −7) |  | K (Log of liquid dish neat product liquid-air partition coefficient greater than or equal to −7)
23 | O=C1CCCCCCCCCCCCCC1 [Material 480] |  | K (Log of liquid dish neat product liquid-air partition coefficient greater than or equal to −7) | 
24 | COc1cc(C)cc(O)c1 [Material 811] |  |  | K (Log of liquid dish neat product liquid-air partition coefficient greater than or equal to −7)
25 | CCC=CCC=CC=CC(=O)OCC [Material 1000] | K (Log of liquid dish neat product liquid-air partition coefficient greater than or equal to −7) |  | 

Row | SMILES | Log of liquid dish neat product liquid-air partition coefficient (Comment Code K/L) | Log of liquid dish neat product liquid-air partition coefficient (Comment Code K/L) [1] | Comment Code: Log of liquid dish neat product liquid-air partition coefficient
26 | CCC=C(C)C(O)CCCCC (stereo not shown) [Material 1104] | K (Log of liquid dish neat product liquid-air partition coefficient greater than or equal to −7) |  | 
27 | CC/C(=C/CC1CC=C(C)C1(C)C)CO (stereo not shown) [Material 1024] | K (Log of liquid dish neat product liquid-air partition coefficient greater than or equal to −7) |  | K (Log of liquid dish neat product liquid-air partition coefficient greater than or equal to −7)
28 | CC(=O)CCC1C(C)=CCCC1(C)C (stereo not shown) [Material 448] |  |  | K (Log of liquid dish neat product liquid-air partition coefficient greater than or equal to −7)
29 | CC(CO)C1CCCCCCCCCCC1 (stereo not shown) [Material 252] |  | K (Log of liquid dish neat product liquid-air partition coefficient greater than or equal to −7) | 
30 | COC1CC2CC1C1CC(C=O)CC21 (stereo not shown) [Material 1026] | K (Log of liquid dish neat product liquid-air partition coefficient greater than or equal to −7) |  | 
31 | CC(C)=CCCC(C)=CCCC(C)=CCO [Material 369] |  | K (Log of liquid dish neat product liquid-air partition coefficient greater than or equal to −7) | 
32 | CC1=CCCC(C)=CCC(C)(C)C=CC1 [Material 706] | K (Log of liquid dish neat product liquid-air partition coefficient greater than or equal to −7) |  | 
33 | CC(CO)CCCc1ccccc1 (stereo not shown) [Material 1012] | K (Log of liquid dish neat product liquid-air partition coefficient greater than or equal to −7) |  | 
34 | CC(C)CC(=O)OCc1ccccc1 [Material 645] |  |  | K (Log of liquid dish neat product liquid-air partition coefficient greater than or equal to −7)
35 | COC(Cc1ccccc1)OC [Material 627] | K (Log of liquid dish neat product liquid-air partition coefficient greater than or equal to −7) |  | K (Log of liquid dish neat product liquid-air partition coefficient greater than or equal to −7)
36 | CC/C=C\CCC1=CCCC1=O [Material 146] |  | K (Log of liquid dish neat product liquid-air partition coefficient greater than or equal to −7) | 
37 | C=CC(C)(CCC=C(C)C)OC(=O)CCC (stereo not shown) [Material 151] |  |  | K (Log of liquid dish neat product liquid-air partition coefficient greater than or equal to −7)
38 | CC1(O)CCC2=C(CCCC2(C)C)C1 (stereo not shown) [Material 676] | K (Log of liquid dish neat product liquid-air partition coefficient greater than or equal to −7) |  | 
39 | CC(C)c1ccc2ncccc2c1 [Material 778] | K (Log of liquid dish neat product liquid-air partition coefficient greater than or equal to −7) |  | 
40 | C=CC1(C)CCC(C(C)C)=CC1C(=C)C (stereo not shown) [Material 461] |  | K (Log of liquid dish neat product liquid-air partition coefficient greater than or equal to −7) | 
41 | CC(O)CCC1CCCCC1 (stereo not shown) [Material 699] |  |  | K (Log of liquid dish neat product liquid-air partition coefficient greater than or equal to −7)
42 | CC(C=O)Cc1cccc(C(C)(C)C)c1 (stereo not shown) [Material 134] |  | K (Log of liquid dish neat product liquid-air partition coefficient greater than or equal to −7) | 
43 | C=CC(C)(CCC=C(C)C)OC(=O)C(C)C (stereo not shown) [Material 149] |  | K (Log of liquid dish neat product liquid-air partition coefficient greater than or equal to −7) | 
44 | C=C1CCCC(C)(C)C2C=C(C)CCC12 (stereo not shown) [Material 707] | K (Log of liquid dish neat product liquid-air partition coefficient greater than or equal to −7) |  | 
45 | CC1(O)CCC2=C(CCCC2(C)C)C1 (stereo not shown) [Material 675] | K (Log of liquid dish neat product liquid-air partition coefficient greater than or equal to −7) |  | 
46 | C=C(C)C1CC=C(CO)CC1 (stereo not shown) [Material 948] | K (Log of liquid dish neat product liquid-air partition coefficient greater than or equal to −7) |  | 
47 | OCCc1ccccc1 [Material 955] | K (Log of liquid dish neat product liquid-air partition coefficient greater than or equal to −7) |  | 
48 | CCC(C)c1nccnc1OC (stereo not shown) [Material 845] |  |  | K (Log of liquid dish neat product liquid-air partition coefficient greater than or equal to −7)
49 | CC(=O)OC(C)c1ccccc1 (stereo not shown) [Material 1041] |  |  | K (Log of liquid dish neat product liquid-air partition coefficient greater than or equal to −7)
